Results as given in patent US20050159596A1, “Cyclic compounds and their use as complex ligands” (Basf Aktiengesellschaft, priority 2002, published 2005).

How the values were obtained:
[1] = Solubility in organic solvents; format: physicochemical; conditions: for solubility in organic solvents (in words): all organic solvents; for solubility (in words): compared with methanol, ethanol and acetonitrile; for solubility: organic solvent or mixture

**Q.** For `c1cc2c3oc(nc3c1)-c1cccc3nc(oc13)-c1cccc3nc(oc13)-c1cccc3nc-2oc13` [Compound 5, Cyclo-2,7′:2′,7″:2′″,7′″:2′″,7-quaterbenzoxazole], which “solubility in organic solvents (in words)” value [1] is on record?
**A.** Its value is “very limited solubility”.

**Q.** Which “solubility in organic solvents (in words)” value [1] does the source give for `c1cc2c3[nH]c(nc3c1)-c1cccc3nc([nH]c13)-c1cccc3nc([nH]c13)-c1cccc3nc-2[nH]c13` [Compound 8, Cyclo-2,4′:2′,7″:2″4′″:2′″,7-quaterbenzimidazole] here?
**A.** The value was “even lower solubility in organic solvents than compound (5)”.

**Q.** Which melting point does the source give for `c1cc(-c2cccc3nc(-c4nc5cccc(-c6cccc7ncoc67)c5o4)oc23)c2ocnc2c1` [Compound 13, 7,7′:2′,2″:7′″,7′″-Quaterbenzoxazole] here?
**A.** Its melting point is 358 to 362 °C.

**Q.** What about the “solubility (in words)” value ([1]; in chloroform) of the same compound?
**A.** Its value is “improved”.

**Q.** What about the “solubility (in words)” value ([1]; in dimethylformide) of the same compound?
**A.** Its value is “improved”.

**Q.** What about the solubility ([1]; in acetonitrile) of the same compound?
**A.** The solubility was < 1 µM.

**Q.** What about the solubility ([1]; in ethanol) of the same compound?
**A.** The solubility was < 1 µM.

**Q.** And the solubility ([1]; in methanol)?
**A.** The solubility was < 1 µM.
